Measured values: US10894798B2, “Substituted dihydropyrrolopyrazole derivative” (UBE INDUSTRIES, LTD., priority 2015, dated 2021)
Read-outs that look alike come from different tables or passages of the source.

How the values were obtained:
Format in all cases: cell-based
[1] = test system: multiple myeloma cell line NCI-H929; assay: Various human cancer cell growth inhibition test: NCI-H929; details: CellTiter-Glo, read-out: GI50 value (concentration necessary for inhibiting 50% of cell growth)
Description: (§1) A breast cancer cell line BT-549 (obtained from American Type Culture Collection (ATCC)), a uterus cancer cell line C-33A (obtained from ATCC), an ovary cancer cell line PA-1 (obtained from ATCC), a large-cell lung cancer cell line NCI-H460 (obtained from ATCC), a small-cell lung cancer cell line NCI-H82 (obtained from ATCC), a kidney cancer cell line ACHN (obtained from ATCC), a pancreatic cancer cell line BxPC-3 (obtained from ATCC), a malignant melanoma cell line A375 (obtained from ATCC), a throat cancer cell line FaDu (obtained from ATCC), a medulloblastoma cell line Daoy (obtained from ATCC), a cutaneous epithelioid sarcoma cell line VA-ES-BJ (obtained from ATCC), a rhabdomyosarcoma cell line A-204 (obtained from ATCC), a prostate cancer cell line DU145 (obtained from ATCC), a bladder cancer cell line T24 (obtained from ATCC), a lymphoma cell line SR (obtained from ATCC), a neuroblastoma cell line SH-SY5Y (obtained from DS Pharma Biomedical Co., Ltd.), a liver cancer cell line HepG2 (obtained from DS Pharma Biomedical Co., Ltd.), a stomach cancer cell line HGC-27 (obtained from DS Pharma Biomedical Co., Ltd.), and a multiple myeloma cell line NCI-H929 (obtained from DS Pharma Biomedical Co., Ltd.) were used as human cancer cell lines.
(§2) Each cell line was cultured in a cell culture medium recommended by ATCC or DS Pharma Biomedical Co., Ltd. and inoculated at 0.3 to 5.0×10^3 cells/well to a 96-well plate. The cells were cultured overnight in a carbon dioxide incubator of 37° C. containing 5% carbon dioxide. The medium was replaced with a fresh medium on the next day, then replaced with a mixed solution of a DMSO solution of a test compound with varying concentrations and a culture medium (final DMSO concentration: 0.1%), and left standing in a carbon dioxide incubator (day 0). IV-361, IV-379, IV-3, IV-215, IV-299, IV-669, IV-1049, and palbociclib (for comparison) were used as test compounds. For a control group, DMSO was added instead of the DMSO solution of the test compound to a cell culture medium (final DMSO concentration: 0.1%).
(§3) After culture for a predetermined period, the ATP activity of BT-549, C-33A, PA-1, NCI-H460, NCI-H82, ACHN, BxPC-3, A375, FaDu, Daoy, VA-ES-BJ, A-204, DU145, T24, and SR was measured by using ATPlite (manufactured by PerkinElmer, Inc.). The ATP activity of SH-SY5Y, HepG2, HGC-27, and NCI-H929 was measured by using CellTiter-Glo (manufactured by Promega Corp.).
(§4) The rate of inhibition of cell growth (%) was calculated according to the expression given below. Specifically, in the case where the difference between the ATP activity before culture (day 0) and the ATP activity after culture in the test compound-administered group is the same as the difference between the ATP activity before culture (day 0) and the ATP activity after culture in the control group, the rate of inhibition of cell growth is 0%. Rate of inhibition of cell growth=(1−((ATP activity of the test compound-administered group after culture)−(ATP activity of the test compound-administered group on day 0))/((ATP activity of the control group after culture)−(ATP activity of the control group on day 0)))×100
(§5) The concentration of the test compound necessary for inhibiting 50% of cell growth (GI50 value) was calculated by using EXSUS (version 8.1.0, manufactured by CAC Exicare Corp.).

IL-2 production = assay: Human PBMC CD3/CD28-induced IL-2 production inhibition test; details: 48 h, read-out: IC50 value, IL-2 production inhibition
Description: PBMC (peripheral blood mononuclear cell) was separated and collected by using Ficoll-Paque (manufactured by GE Healthcare Japan Corp.) from blood collected from a healthy human adult in the presence of heparin. A RPMI1640 medium containing 10% FBS, 1% penicillin/streptomycin/amphotericin B, essential amino acids, and pyruvic acid and containing a test compound dissolved in DMSO and 2 μg/mL CD28 was added at 100 μL/well to T cell Activation Plate Anti-Human CD3 96-well plate (manufactured by Becton, Dickinson and Company), and subsequently, a PBMC suspension prepared such that the number of cells was 2×10^6 cells/mL was added thereto at 100 μL/well (final DMSO concentration: 0.1%). A RPMI1640 medium containing 10% FBS and containing 0.1% DMSO and 2 μg/mL CD28 was similarly added to wells not supplemented with the test compound. After culture for 2 days in a carbon dioxide incubator, the culture supernatant was collected. The collected culture supernatant was stored at −20° C. until IL-2 content measurement.
In the measurement of an L-2 content in the culture supernatant, a sandwich ELISA kit (Quantikine Human IL-2, manufactured by R&D Systems, Inc.) was used. The L-2 content of each sample was calculated from the calibration curve of Standard IL-2 included in the kit. […] A test compound concentration necessary for inhibiting 50% of L-2 production (IC50 value) was calculated from the concentration of the added test compound and the rate of inhibition of IL-2 production by the test compound by using EXSUS (version 8.1.0, manufactured by CAC Exicare Corp.).

[2] = test system: small-cell lung cancer cell line NCI-H82; assay: Various human cancer cell growth inhibition test: NCI-H82; details: ATPlite, read-out: GI50 value (concentration necessary for inhibiting 50% of cell growth)
Description: as §1, §2, §3, §4, §5

[3] = test system: medulloblastoma cell line Daoy; assay: Various human cancer cell growth inhibition test: Daoy; details: ATPlite, read-out: GI50 value (concentration necessary for inhibiting 50% of cell growth)
Description: as §1, §2, §3, §4, §5

[4] = test system: ovary cancer cell line PA-1; assay: Various human cancer cell growth inhibition test: PA-1; details: ATPlite, read-out: GI50 value (concentration necessary for inhibiting 50% of cell growth)
Description: as §1, §2, §3, §4, §5

[5] = test system: bladder cancer cell line T24; assay: Various human cancer cell growth inhibition test: T24; details: ATPlite, read-out: GI50 value (concentration necessary for inhibiting 50% of cell growth)
Description: as §1, §2, §3, §4, §5

[6] = test system: throat cancer cell line FaDu; assay: Various human cancer cell growth inhibition test: FaDu; details: ATPlite, read-out: GI50 value (concentration necessary for inhibiting 50% of cell growth)
Description: as §1, §2, §3, §4, §5

[7] = test system: pancreatic cancer cell line BxPC-3; assay: Various human cancer cell growth inhibition test: BxPC-3; details: ATPlite, read-out: GI50 value (concentration necessary for inhibiting 50% of cell growth)
Description: as §1, §2, §3, §4, §5

[8] = test system: rhabdomyosarcoma cell line A-204; assay: Various human cancer cell growth inhibition test: A-204; details: A204, ATPlite, read-out: GI50 value (concentration necessary for inhibiting 50% of cell growth)
Description: as §1, §2, §3, §4, §5

[9] = test system: breast cancer cell line BT-549; assay: Various human cancer cell growth inhibition test: BT-549; details: ATPlite, read-out: GI50 value (concentration necessary for inhibiting 50% of cell growth)
Description: as §1, §2, §3, §4, §5

[10] = human PBMC, CD3/CD28 stimulation, culture for 2 days, ELISA

| Structure (SMILES) | GI50 [1] | IC50 (IL-2 production; [10]) | GI50 [2] | GI50 [3] | GI50 [4] | GI50 [5] | GI50 [6] | GI50 [7] | GI50 [8] | GI50 [9] | IC50 (IL-2 production; Homo sapiens, PBMC) |
| --- | --- | --- | --- | --- | --- | --- | --- | --- | --- | --- | --- |
| Cc1cccc(Cl)c1NC(=O)N1Cc2c(NC(=O)C3([Si](C)(C)C)CCC3)n[nH]c2C1(C)C [IV-215, N-(2-Chloro-6-methylphenyl)-6,6-dimethyl-3-[1-(trimethylsilyl)cyclobutanecarboxamido]-4,6-dihydropyrrolo[3,4-c]pyrazole-5 (1H)-carboxamide] | < 300 nM | ≤ 100 nM | < 300 nM | < 300 nM | < 300 nM | < 300 nM | < 300 nM | < 300 nM | < 300 nM | < 300 nM |  |
| CC1(C)c2[nH]nc(NC(=O)C3([Si](C)(C)C)CCC3)c2CN1C(=O)Nc1c(F)cccc1Cl [IV-113, N-(2-Chloro-6-fluorophenyl)-6,6-dimethyl-3-[1-(trimethylsilyl)cyclobutanecarboxamido]-4,6-dihydropyrrolo[3,4-c]pyrazole-5(1H)-carboxamide] |  |  |  |  |  |  |  |  |  |  | ≤ 100 nM |
| COc1cccc(F)c1NC(=O)N1Cc2c(NC(=O)C3([Si](C)(C)C)CCC3)n[nH]c2C1(C)C [IV-161, N-(2-Fluoro-6-methoxyphenyl)-6,6-dimethyl-3-[1-(trimethylsilyl)cyclobutanecarboxamido]-4,6-dihydropyrrolo[3,4-c]pyrazole-5(1H)-carboxamide] |  | ≤ 100 nM |  |  |  |  |  |  |  |  |  |
| Cc1ccc(F)cc1NC(=O)N1Cc2c(NC(=O)C3([Si](C)(C)C)CCC3)n[nH]c2C1(C)C [IV-361, N-(5-Fluoro-2-methylphenyl)-6,6-dimethyl-3-[1-(trimethylsilyl)cyclobutanecarboxamido]-4,6-dihydropyrrolo[3,4-c]pyrazole-5 (1H)-carboxamide] | < 300 nM | ≤ 100 nM | < 300 nM | < 300 nM | < 300 nM | < 300 nM | < 300 nM | < 300 nM | < 300 nM | < 300 nM |  |
| Cc1ccc(C)c(NC(=O)N2Cc3c(NC(=O)C4([Si](C)(C)C)CCC4)n[nH]c3C2(C)C)c1F [IV-669, N-(2-Fluoro-3,6-dimethylphenyl)-6,6-dimethyl-3-[1-(trimethylsilyl)cyclobutanecarboxamido]-4,6-dihydropyrrolo[3,4-c]pyrazole-5(1H)-carboxamide] | < 300 nM | ≤ 100 nM | < 300 nM | < 300 nM | < 300 nM | < 300 nM | < 300 nM | < 300 nM | < 300 nM | < 300 nM |  |
| CC1(C)c2[nH]nc(NC(=O)C3([Si](C)(C)C)CCC3)c2CN1C(=O)Nc1c(F)ccc2ccoc12 [IV-1049, N-(6-Fluorobenzofuran-7-yl)-6,6-dimethyl-3-[1-(trimethylsilyl)cyclobutanecarboxamido]-4,6-dihydropyrrolo[3,4-c]pyrazole-5 (1H)-carboxamide] | < 300 nM | ≤ 100 nM | < 300 nM | < 300 nM | < 300 nM | < 300 nM | < 300 nM | < 300 nM | < 300 nM | < 300 nM |  |
| Cc1ccc(C)c(NC(=O)N2Cc3c(NC(=O)C4([Si](C)(C)C)CCC4)n[nH]c3C2(C)C)c1 [IV-379, N-(2,5-Dimethylphenyl)-6,6-dimethyl-3-[1-(trimethylsilyl)cyclobutanecarboxamido]-4,6-dihydropyrrolo[3,4-c]pyrazole-5(1H)-carboxamide] | < 300 nM | ≤ 100 nM | < 300 nM | < 300 nM | < 300 nM | < 300 nM | < 300 nM | < 300 nM | < 300 nM | < 300 nM |  |
| Cc1ccc(F)c(NC(=O)N2Cc3c(NC(=O)C4([Si](C)(C)C)CCC4)n[nH]c3C2(C)C)c1 [IV-127, N-(2-Fluoro-5-methylphenyl)-6,6-dimethyl-3-[1-(trimethylsilyl)cyclobutanecarboxamido]-4,6-dihydropyrrolo[3,4-c]pyrazole-5 (1H)-carboxamide] |  | ≤ 100 nM |  |  |  |  |  |  |  |  |  |
| Cc1ccccc1NC(=O)N1Cc2c(NC(=O)C3([Si](C)(C)C)CCC3)n[nH]c2C1(C)C [IV-21, 6,6-Dimethyl-N-(o-tolyl)-3-[1-(trimethylsilyl)cyclobutanecarboxamido]-4,6-dihydropyrrolo[3,4-c]pyrazole-5(1H)-carboxamide] |  | ≤ 100 nM |  |  |  |  |  |  |  |  |  |
| CC1(C)c2[nH]nc(NC(=O)C3([Si](C)(C)C)CCC3)c2CN1C(=O)Nc1ccccc1F [IV-3, N-(2-Fluorophenyl)-6,6-dimethyl-3-[1-(trimethylsilyl)cyclobutanecarboxamido]-4,6-dihydropyrrolo[3,4-c]pyrazole-5(1H)-carboxamide] | < 300 nM | ≤ 100 nM | < 300 nM | < 300 nM | < 300 nM | < 300 nM | < 300 nM | < 300 nM | < 300 nM | < 300 nM |  |
| Cc1cccc(Br)c1NC(=O)N1Cc2c(NC(=O)C3([Si](C)(C)C)CCC3)n[nH]c2C1(C)C [IV-299, N-(2-Bromo-6-methylphenyl)-6,6-dimethyl-3-[1-(trimethylsilyl)cyclobutanecarboxamido]-4,6-dihydropyrrolo[3,4-c]pyrazole-5 (1H)-carboxamide] | < 300 nM | ≤ 100 nM | < 300 nM | < 300 nM | < 300 nM | < 300 nM | < 300 nM | < 300 nM | < 300 nM | < 300 nM |  |
